Data on 20 compounds can be found in ChEMBL document CHEMBL1157873, “Synthesis and biological activity of Delta-5,6-norcantharimides: importance of the 5,6-bridge” (Eur J Med Chem, 2010).

A value given as a limit tells only on which side of the number the result lay.

Format in all cases: functional
One assay has as its system A2780. The experiment in a line: Cytotoxicity against human A2780 cells at 100 uM after 72 hrs by MTT assay. The settings on record: A2780, 72 h. Background: Tetrazolium dyes change colour on reduction, which living cells bring about.
Another assay deals with SW480. The experiment in a line: Cytotoxicity against human SW480 cells at 100 uM after 72 hrs by MTT assay. As to conditions: SW480, 72 h.
Another assay concerns MCF7. As to the kind of experiment: Cytotoxicity against human MCF7 cells at 100 uM after 72 hrs by MTT assay. As to conditions: MCF7, 72 h.
A further assay concerns A-431. The experiment in a line: Cytotoxicity against human A431 cells at 100 uM after 72 hrs by MTT assay. As to conditions: A-431, 72 h.
Assay [1] is described as follows: Cytotoxicity against human BE(2)-C cells at 100 uM after 72 hrs by MTT assay.
The next assay deals with DU-145. As to the kind of experiment: Cytotoxicity against human DU145 cells at 100 uM after 72 hrs by MTT assay. As to conditions: DU-145, 72 h.
Assay [2] can be described thus: Cytotoxicity against human SJ-G2 cells at 100 uM after 72 hrs by MTT assay. The settings on record: SJ-G2, 72 h.
The next assay concerns HT-29. The experiment in a line: Cytotoxicity against human HT-29 cells at 100 uM after 72 hrs by MTT assay. The settings on record: HT-29, 72 h.
The test system of another assay is NCI-H460. As to the kind of experiment: Cytotoxicity against human H460 cells at 100 uM after 72 hrs by MTT assay. As to conditions: NCI-H460, 72 h.

As usually defined, the inhibition is the drop in the measured response relative to a control, in per cent.

As to `O=C1[C@H]2CN(Cc3ccccc3)C[C@H]2C(=O)N1CCN1CCOCC1`, the inhibition at 100 µM in the assay with A2780 is 33%; in the assay on SW480 it was 49%; in the assay with MCF7, 51%; in the assay on A-431 it was 11%; in [1], 12%; in the assay with DU-145 it was 25%. The inhibition at 100 µM was 25% in [2], 45% with HT-29 and < 10% in the assay with NCI-H460.

As for `CC(CO)N1C(=O)[C@H]2CNC[C@H]2C1=O` (stereo not given in full), the inhibition at 100 µM (in the assay with A2780; with SW480; in the assay with MCF7; with A-431; in assay [1]; in the assay with DU-145) was < 10% in each case. The inhibition at 100 µM in assay [2] was < 10%; in the assay with HT-29, 15%; in the assay on NCI-H460, < 10%.

With `CCC(CO)N1C(=O)[C@H]2COC[C@H]2C1=O` (stereo not given in full), the inhibition at 100 µM with A2780 is 13%; in the assay on SW480, < 10%; with MCF7, < 10%; in the assay on A-431 it was < 10%; in [1], < 10%; with DU-145, < 10%. For the same compound, the inhibition at 100 µM (in assay [2]; in the assay with HT-29; in the assay with NCI-H460) was < 10% in each case.

As to `CCOC(=O)C[C@@H](C(=O)OCC)N1C(=O)[C@H]2COC[C@H]2C1=O`, the inhibition at 100 µM in the assay on A2780 was 15%; in the assay on SW480, < 10%; in the assay on MCF7, 16%; in the assay with A-431, < 10%; in assay [1], < 10%; in the assay on DU-145 it was < 10%. For the same compound, the inhibition at 100 µM is < 10% in [2], 16% in the assay with HT-29 and < 10% in the assay on NCI-H460.

For the compound `CCC(CO)N1C(=O)[C@H]2CSC[C@H]2C1=O` (stereo not given in full), the inhibition at 100 µM (with A2780; in the assay with SW480; with MCF7; in the assay on A-431; in assay [1]; with DU-145) was < 10% throughout. In addition, the inhibition at 100 µM (in [2]; in the assay with HT-29; in the assay on NCI-H460) was < 10% throughout.

For the compound `CCOC(=O)CC[C@@H](C(=O)OCC)N1C(=O)[C@H]2COC[C@H]2C1=O`, the inhibition at 100 µM in the assay on A2780 was 29%; in the assay on SW480, 34%; in the assay with MCF7 it was 28%; with A-431, 13%; in [1], < 10%; in the assay on DU-145, 20%. The inhibition at 100 µM is < 10% in [2], 30% in the assay on HT-29 and 13% in the assay with NCI-H460.

As for `O=C1[C@H]2CNC[C@H]2C(=O)N1CCN1CCOCC1`, the inhibition at 100 µM is < 10% in the assay on A2780; < 10% in the assay with SW480; 11% in the assay with MCF7; 10% in the assay on A-431; < 10% in [1]; < 10% with DU-145. The inhibition at 100 µM (in assay [2]; in the assay with HT-29; with NCI-H460) was < 10% throughout.

In the case of `NCCC[C@@H](C(=O)O)N1C(=O)[C@H]2CNC[C@H]2C1=O`, the inhibition at 100 µM is 11% in the assay with A2780; 11% in the assay with SW480; 22% in the assay with MCF7; 16% in the assay with A-431; 23% in assay [1]; < 10% in the assay on DU-145. Besides, the inhibition at 100 µM was < 10% in [2], 12% in the assay with HT-29 and 16% with NCI-H460.

On to `CC(CO)N1C(=O)[C@H]2COC[C@H]2C1=O` (stereo not given in full), for which the inhibition at 100 µM was 13% with A2780; < 10% with SW480; < 10% with MCF7; < 10% in the assay on A-431; < 10% in [1]; < 10% in the assay on DU-145. In addition, the inhibition at 100 µM in [2] is < 10%; in the assay with HT-29, < 10%; with NCI-H460, 10%.

On to `CCC(CO)N1C(=O)[C@H]2CNC[C@H]2C1=O` (stereo not given in full), for which the inhibition at 100 µM (in the assay on A2780; in the assay on SW480; in the assay with MCF7; in the assay on A-431; in assay [1]; in the assay with DU-145) was < 10% in each case. The inhibition at 100 µM (in [2]; with HT-29; in the assay with NCI-H460) was < 10% each time.

As to `O=C(O)[C@H](Cc1c[nH]cn1)N1C(=O)[C@H]2CNC[C@H]2C1=O`, the inhibition at 100 µM (in the assay on A2780; in the assay with SW480; in the assay on MCF7; in the assay with A-431; in assay [1]; with DU-145) was < 10% each time. Further, the inhibition at 100 µM is < 10% in assay [2], 10% in the assay with HT-29 and < 10% in the assay with NCI-H460.

Take `NCCCC[C@@H](C(=O)O)N1C(=O)[C@H]2COC[C@H]2C1=O`: the inhibition at 100 µM with A2780 turned out to be 31%; with SW480 it was 30%; with MCF7, 37%; with A-431, 35%; in [1], 32%; in the assay with DU-145, 17%. The figures for the inhibition at 100 µM (in assay [2]; in the assay on HT-29; in the assay on NCI-H460) were 23%, 30% and 27%, respectively.

As to `CCOC(=O)C[C@@H](C(=O)OCC)N1C(=O)[C@H]2CNC[C@H]2C1=O`, the inhibition at 100 µM with A2780 was 14%; in the assay on SW480, < 10%; in the assay with MCF7, 15%; with A-431, < 10%; in assay [1], < 10%; in the assay with DU-145, < 10%. Further, the values for the inhibition at 100 µM (in assay [2]; with HT-29; with NCI-H460) were < 10%, 15% and < 10%, respectively.

Turning to `CC(CO)N1C(=O)[C@H]2CN(Cc3ccccc3)C[C@H]2C1=O` (stereo not given in full), the inhibition at 100 µM is 21% in the assay on A2780; 12% in the assay on SW480; 22% in the assay with MCF7; < 10% in the assay with A-431; 10% in assay [1]; 10% with DU-145. Also, the values for the inhibition at 100 µM (in [2]; with HT-29; in the assay on NCI-H460) were 18%, 15% and 14%, respectively.

For the compound `CCC(CO)N1C(=O)[C@H]2CN(Cc3ccccc3)C[C@H]2C1=O` (stereo not given in full), the inhibition at 100 µM in the assay with A2780 is 15%; with SW480, 15%; in the assay with MCF7 it was < 10%; in the assay on A-431, < 10%; in assay [1], < 10%; with DU-145, < 10%. For the same compound, the inhibition at 100 µM in assay [2] is < 10%; in the assay on HT-29, 14%; in the assay on NCI-H460 it was < 10%.

For `O=C(O)[C@H](Cc1c[nH]cn1)N1C(=O)[C@H]2COC[C@H]2C1=O`, the inhibition at 100 µM in the assay on A2780 came out at 23%; with SW480, 18%; in the assay with MCF7 it was 20%; with A-431, 26%; in assay [1] it was 22%; with DU-145, 11%. Further, the inhibition at 100 µM worked out at 15% in assay [2], 26% in the assay on HT-29 and 21% in the assay with NCI-H460.

With `NCCC[C@@H](C(=O)O)N1C(=O)[C@H]2COC[C@H]2C1=O`, the inhibition at 100 µM with A2780 is < 10%; with SW480 it was < 10%; in the assay with MCF7, < 10%; in the assay on A-431, 10%; in [1] it was < 10%; in the assay on DU-145 it was < 10%. Moreover, the inhibition at 100 µM is 32% in assay [2], < 10% in the assay with HT-29 and < 10% in the assay on NCI-H460.

For `O=C(O)C[C@@H](C(=O)O)N1C(=O)[C@H]2COC[C@H]2C1=O`, the inhibition at 100 µM is 15% with A2780; < 10% in the assay with SW480; 13% with MCF7; < 10% in the assay with A-431; < 10% in [1]; < 10% with DU-145. Also, the figures for the inhibition at 100 µM (in assay [2]; in the assay on HT-29; with NCI-H460) were < 10%, 14% and < 10%, respectively.

Turning to `O=C(O)[C@H](Cc1c[nH]cn1)N1C(=O)[C@H]2CSC[C@H]2C1=O`, the inhibition at 100 µM in the assay on A2780 was < 10%; in the assay with SW480, < 10%; in the assay with MCF7 it was 15%; in the assay with A-431, < 10%; in assay [1] it was 14%; in the assay on DU-145, < 10%. For the same compound, the inhibition at 100 µM in assay [2] was < 10%; with HT-29 it was 10%; with NCI-H460, 10%.

Turning to `O=C1[C@H]2COC[C@H]2C(=O)N1CCN1CCOCC1`, the inhibition at 100 µM in the assay with A2780 was 13%; in the assay on SW480 it was < 10%; in the assay on MCF7, < 10%; in the assay with A-431, < 10%; in assay [1], < 10%; with DU-145 it was < 10%. Further, the inhibition at 100 µM (in assay [2]; in the assay on HT-29; with NCI-H460) was < 10% throughout.
